We go through ten compounds from patent US20250312309A1, “ALLYL-AND PROPARGYLAMINE-TYPE PHENE[…] T[…] TREATING MEDICAL DISORDERS” (Mind Medicine, Inc., priority 2023, published 2025).

“Also recorded” adds a separate entry of the source. Structures can show the parent of a compound that is named as a salt. Where two headings read alike, the source gives them in different places. Some results are limits rather than exact numbers.

Experiment [1] addresses T1, human serotonin (5-HT) transporter (hSERT) (Homo sapiens, UniProt P31645).
T1 construct: expressed in transfected cells; host or cells: HEK 293 cells (Invitrogen), stably transfected
As to the kind of experiment: Serotonin uptake transport inhibition ([3H]5-HT uptake in hSERT-transfected HEK 293 cells). Type of experiment: cell-based. The note with it: screening at 1 μM and 10 μM (n=3), FIG. 9.
Protocol: Serotonin uptake transport inhibition. […] Briefly, cells were cultured in Dulbecco's modified Eagle's medium (DMEM; Gibco, Life Technologies, Zug, Switzerland) with 10% fetal bovine serum (Gibco) and 250 mg/mL Geneticin (Gibco) to 70-90% confluence, detached, and then resuspended (3×10^6 cells/mL) in Krebs-Ringer Bicarbonate Buffer (Sigma-Aldrich, Buchs, Switzerland). The cell suspension (100 μL) was incubated with 25 μL buffer containing the test compounds, vehicle control, or 10 μM fluoxetine (SERT-specific inhibitor) for 10 minutes in a round bottom 96-well plate at room temperature by shaking at 450 rotations per minute on a rotary shaker. To initiate uptake transport, 50 μL of [^3H] […] Thereafter, 100 μL of the cell suspension was transferred into 500 μL microcentrifuge tubes that contained 50 μL of 3 M KOH and 200 μL silicon oil (1:1 mixture of silicon oil types AR 20 and AR 200; Sigma-Aldrich). The tubes were centrifuged for 3 minutes at 16,550 g to transport the cells through the silicone oil into the KOH. The tubes were frozen in liquid nitrogen and the cell pellet was then cut into 6 mL scintillation vials (PerkinElmer, Schwerzenbach, Switzerland) that contained 0.5 mL lysis buffer (0.05 M TRIS-HCl, 50 mM NaCl, 5 mM EDTA, and 1% NP-40 in water). The samples were shaken for 1 hour before the addition of 5 mL scintillation liquid (Ultimagold, Perkin Elmer). Serotonin uptake was quantified by liquid scintillation counting on a Packard Tri-Carb Liquid Scintillation Counter 1900 TR. Non-specific uptake in the presence of fluoxetine was subtracted from the total counts.

In experiment [2] the target is T2, human 5-HT2A receptor (Homo sapiens, UniProt P28223).
T2 construct: expressed in transfected cells; host or cells: NIH/3T3 cells stably expressing the receptor
As to the kind of experiment: 5-HT2A receptor activation assessment (IP1 accumulation, NIH/3T3 cells). Type of experiment: cell-based. The note with it: for 5-HT2A receptor activation, result in words: FIG. 10 / FIG. 11.
Protocol: 5-HT2A receptor activation assessment. Activation of the 5-HT2A receptor was assessed by measuring the accumulation of inositol monophosphate 1 (IP1) using the Cisbio IP-One Gq Kit (Cisbio Bioassays SAS, Codolet Cedex, France) according to the manufacturer's protocol. In brief, NIH/3T3 cells stably expressing the human 5-HT2A receptor were seeded at a density of 2,500 cells per well in a 384-well plate in Opti-MEM™ I medium (Gibco, ThermoFisher, Life Technologies Europe B.V., Zug, Switzerland). Then, test compounds were added, and the plate was incubated for 90 minutes at 37° C., followed by 60 minutes incubation with Anti-IP1-Cryptate and IP1-d2 at room temperature. Stimulated IP-1 formation was determined by Homogeneous Time-Resolved Fluorescence (HTRF) measurement on a BioTek Synergy H1 Multimode Reader (Agilent Technologies (Schweiz) AG, Basel, Switzerland) and EC50 values were derived from the concentration-response curves using nonlinear regression.

For experiment [3] the following is noted: humans; Trachsel et al., 2013; cited from earlier work.
Experiment [4] deals with T1, human serotonin (5-HT) transporter (hSERT). The note with it: read-out: IC50, SERT inhibition (Simmler et al., 2013); literature value in this assay; cited from earlier work.
Where [5] appears, read: NIH/3T3 cells expressing human 5-HT2A, FIG. 11, read-out: EC50, 5-HT2A receptor activation (IP1 formation).
Where [6] appears, read: values for hydrochloride salts, read-out: IC50 values at the 5-HT2A receptor.

T2 sequence (P28223 whole entry): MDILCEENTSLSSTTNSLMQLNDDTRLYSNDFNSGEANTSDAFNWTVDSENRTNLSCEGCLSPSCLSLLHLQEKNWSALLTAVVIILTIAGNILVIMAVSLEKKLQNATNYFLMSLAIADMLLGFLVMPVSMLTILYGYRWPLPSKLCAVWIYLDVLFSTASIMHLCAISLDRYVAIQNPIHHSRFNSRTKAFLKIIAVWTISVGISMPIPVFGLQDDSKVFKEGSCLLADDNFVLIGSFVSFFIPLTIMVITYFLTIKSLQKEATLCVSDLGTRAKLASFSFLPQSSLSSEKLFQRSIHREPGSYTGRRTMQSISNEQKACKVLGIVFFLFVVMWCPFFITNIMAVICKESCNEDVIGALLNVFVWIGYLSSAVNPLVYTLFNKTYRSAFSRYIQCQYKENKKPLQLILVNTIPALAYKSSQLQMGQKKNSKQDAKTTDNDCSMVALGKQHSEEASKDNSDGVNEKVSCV
T1 sequence (P31645 whole entry): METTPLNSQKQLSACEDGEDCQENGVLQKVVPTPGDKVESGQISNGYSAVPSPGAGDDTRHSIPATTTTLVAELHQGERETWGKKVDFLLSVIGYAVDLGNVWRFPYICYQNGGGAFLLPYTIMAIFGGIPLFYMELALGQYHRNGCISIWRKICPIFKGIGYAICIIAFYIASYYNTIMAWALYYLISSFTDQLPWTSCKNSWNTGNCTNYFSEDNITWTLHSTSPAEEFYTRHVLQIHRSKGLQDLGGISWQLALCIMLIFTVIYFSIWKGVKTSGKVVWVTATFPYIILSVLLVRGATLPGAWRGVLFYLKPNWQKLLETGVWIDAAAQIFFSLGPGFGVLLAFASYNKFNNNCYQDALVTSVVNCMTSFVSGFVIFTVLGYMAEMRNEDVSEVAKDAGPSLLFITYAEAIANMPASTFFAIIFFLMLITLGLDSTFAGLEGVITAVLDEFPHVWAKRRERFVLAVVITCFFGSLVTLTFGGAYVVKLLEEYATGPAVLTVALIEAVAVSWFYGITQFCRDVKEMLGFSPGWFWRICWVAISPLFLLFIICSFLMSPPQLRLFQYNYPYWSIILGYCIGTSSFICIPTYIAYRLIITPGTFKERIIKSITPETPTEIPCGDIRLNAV

As a reminder, the IC50 is the concentration at which inhibition is half-maximal. In the case of “1-(Indol-3-yl) but-3-en-2-amine hemifumarate [DH-α-ET]”, the IC50 in experiment [1] (read-out: IC50, inhibition of 5-HT uptake (SERT)) was < 1000 nM. In addition, the “IC50, inhibition of 5-HT uptake (SERT)” value in experiment [1] is listed as “sub-micromolar”. Further, in experiment [2] (at 10 μM), the “efficacy at the 5-HT2A receptor, percentage of the maximal 5-HT response” value was ~50%. Consider `CCC(N)Cc1cc(OC)c(Br)cc1OC` (stereo not shown) [4C-B], for which the “active dose range (mixed psychedelic-energizing)” value in experiment [3] is 50 to 80 mg.

Consider `C=C(c1ccc2c(c1)OCO2)C(C)NC.Cl` (stereo not shown) [BME-MDMA, 2-(1,3-Benzodioxol-5-yl)-3-(methylamino) butene hydrochloride], for which, in experiment [2], the “5-HT2A receptor activation, result in words” value (“5-HT2A receptor activation” below) is “weaker activation efficacy”. For `C#CC(N)Cc1cc(OC)c(Br)cc1OC.Cl` (stereo not shown) [DDH-4C-B, 1-(4-Bromo-2,5-dimethoxyphenyl)but-3-yn-2-amine hydrochloride], the “5-HT2A receptor activation” value in experiment [2] is given as “fully activated”. In addition, the EC50 in experiment [2] (setting [5]) and in experiment [2] (setting [6]) was 40.7 nM in each case. In the case of `C#CC(N)Cc1ccc2c(c1)OCO2` (stereo not shown) [DDH-BDB, 1-(1,3-Benzodioxol-5-yl)but-3-yn-2-amine hydrochloride], in experiment [1], the IC50 is > 10000 nM. Same read-out and setting: in the case of `C#CC(Cc1ccc2c(c1)OCO2)NC` (stereo not shown) [DDH-MBDB, N-Methyl-1-(1,3-benzodioxol-5-yl)but-3-yn-2-amine hydrochloride] it was > 10000 nM. Consider `C=CC(N)Cc1cc(OC)c(Br)cc1OC.Cl` (stereo not shown) [DH-4C-B, 1-(4-Bromo-2,5-dimethoxyphenyl)but-3-en-2-amine hydrochloride], for which the IC50 in experiment [1] was > 10000 nM. Also, the “5-HT2A receptor activation” value in experiment [2] (hydrochloride) is “fully activated; also recorded: potent activity”. Moreover, the EC50 in experiment [2] (setting [5]) and in experiment [2] (setting [6]) was 22.1 nM each time. Consider `C=CC(N)Cc1ccc2c(c1)OCO2.Cl` (stereo not shown) [DH-BDB, 1-(1,3-Benzodioxol-5-yl) but-3-en-2-amine hydrochloride], for which, in experiment [1], the IC50 was in the range of 1000 to 10000 nM. In addition, the “5-HT2A receptor activation” value in experiment [2] is recorded as “weaker activation efficacy”. In turn, `C=CC(Cc1ccc2c(c1)OCO2)NC.Cl` (stereo not shown) [DH-MBDB, N-Methyl-1-(1,3-benzodioxol-5-yl) but-3-en-2-amine hydrochloride] registered an IC50 in experiment [1] of 1000 to 10000 nM. In addition, in experiment [2], the “5-HT2A receptor activation” value is “weaker activation efficacy”. In the case of `CNC(C)Cc1ccc2c(c1)OCO2` (stereo not shown) [MDMA, 3,4-Methylenedioxymethamphetamine], the IC50 in experiment [4] is ~1400 nM.
